Earlier results in US7985754B2, “Selective antagonists of A2A adenosine receptors” (Trovis Pharmaceuticals, LLC, priority 2006, dated 2011).

Key:
[1] = in words
[2] = in words; remark: listed apart in the source

solubility [1]	bioavailability [2]	SMILES
very poorly soluble		Nc1nc2c(cnn2CCc2ccccc2)c2nc(-c3ccco3)nn12 [SCH58261]
	poor bioavailability	Nc1nc(NCCc2ccc(O)cc2)nc2nc(-c3ccco3)nn12 [ZM241385]
